± gives the standard deviation of the averaged measurements.
Experiments:
Assay in all cases: level (log10 ratio to DMSO vehicle control); higher = higher biomarker level / cell amount than vehicle control
Conditions in all cases: in DMSO
[1] = compound: Cn1cnc([N+](=O)[O-])c1Sc1ncnc2[nH]cnc12 [Azathioprine]
Method: (§1)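 BioMAP Diversity Plus panel of 12 human primary cell co-culture systems (3C, 4H, LPS, SAg, BT, BF4T, BE3C, CASM3C, HDF3CGF, KF3CT, MyoF, Mphg). Compounds were added 1 h before stimulation and left for 24 h (MyoF 48 h; BT 72 h for soluble read-outs or 6 d for IgG). Biomarkers were read by ELISA, cytotoxicity by SRB, PBMC viability and proliferation by Alamar Blue. Each well value was divided by the mean of 8 DMSO control wells on the same plate and log10 transformed; duplicate blinded samples were tested at 4 concentrations.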

[2] = compound: CCCCCCCCC(F)(F)C(F)(F)C(F)(F)C(F)(F)C(F)(F)C(F)(F)F [1-(Perfluorohexyl)octane]
Method: as §1

[3] = compound: O=C(O)C(F)(F)OC(F)(F)C(F)(F)OC(F)(F)C(F)(F)C(F)(F)C(F)(F)F [Perfluoro-3,6-dioxadecanoic acid]
Method: as §1

[4] = compound: C=C(C)C(=O)OCC(F)(F)C(F)(F)C(F)(F)C(F)(F)C(F)(F)C(F)(F)C(F)(F)F
Method: as §1

[5] = compound: CNS(=O)(=O)C(F)(F)C(F)(F)C(F)(F)C(F)(F)C(F)(F)C(F)(F)C(F)(F)C(F)(F)F [N-Methylperfluorooctanesulfonamide]
Method: as §1

[6] = compound: O=P(O)(O)CCC(F)(F)C(F)(F)C(F)(F)C(F)(F)C(F)(F)C(F)(F)C(F)(F)C(F)(F)F [((Perfluorooctyl)ethyl)phosphonic acid]
Method: as §1

[7] = compound: O=S(=O)(O)C(F)(F)C(F)(F)C(F)(F)C(F)(F)C(F)(F)C(F)(F)C(F)(F)C(F)(F)F [Potassium perfluorooctanesulfonate]
Method: as §1

| Test System | level (log10) ([1]; 1400 nM) | level (log10) ([1]; 4200 nM) | level (log10) ([1]; 13000 nM) | level (log10) ([1]; 38000 nM) | level (log10) ([2]; 6700 nM) | level (log10) ([2]; 20000 nM) | level (log10) ([3]; 6700 nM) | level (log10) ([3]; 20000 nM) | level (log10) ([3]; 60000 nM) | level (log10) ([4]; 6700 nM) | level (log10) ([4]; 20000 nM) | level (log10) ([5]; 6700 nM) | level (log10) ([5]; 20000 nM) | level (log10) ([5]; 60000 nM) | level (log10) ([6]; 6700 nM) | level (log10) ([6]; 20000 nM) | level (log10) ([6]; 60000 nM) | level (log10) ([7]; 6700 nM) | level (log10) ([7]; 20000 nM) | level (log10) ([7]; 60000 nM) |
| --- | --- | --- | --- | --- | --- | --- | --- | --- | --- | --- | --- | --- | --- | --- | --- | --- | --- | --- | --- | --- |
| HDF3CGF:SRB | -0.0505 ± 0.04 | -0.053 ± 0.02 | -0.018 ± 0.025 | -0.0325 ± 0.079 | 0.0105 ± 0.11 | 0.022 ± 0.057 | 0.0265 ± 0.033 | 0.0885 ± 0.022 | 0.0485 ± 0.079 | 0.0255 ± 0.11 | 0.044 ± 0.12 | -0.032 ± 0.03 | 0.005 ± 0.023 | -0.008 ± 0.014 | 0.0285 ± 0.021 | -0.0095 ± 0.033 | -0.011 ± 0.033 | -0.033 ± 0.052 | -0.005 ± 0.052 | -0.0695 ± 0.053 |
| HDF3CGF:TIMP-1 | -0.0195 ± 0.005 | -0.0115 ± 0.033 | -0.018 ± 0.024 | -0.0695 ± 0.06 | 0.0105 ± 0.039 | -0.0185 ± 0.03 | -0.0085 ± 0.00071 | 0.006 ± 0.11 | 0.0755 ± 0.083 | 0.041 ± 0.038 | 0.036 ± 0.03 | 0.0335 ± 0.016 | -0.025 ± 0.038 | 0.012 ± 0.02 | -0.03 ± 0.0057 | -0.06 ± 0.018 | -0.0575 ± 0.044 | 0.001 ± 0.024 | -0.001 ± 0.016 | 0.097 ± 0.061 |
| HDF3CGF:TIMP-2 | -0.0175 ± 0.00071 | -0.023 ± 0.048 | 0.0315 ± 0.056 | 0.049 ± 0.018 | -0.005 ± 0.067 | -0.0035 ± 0.052 | -0.0245 ± 0.028 | -0.035 ± 0.0085 | -0.0625 ± 0.0078 | 0.0535 ± 0.0092 | 0.0035 ± 0.056 | -0.094 ± 0.0057 | -0.136 ± 0.046 | -0.049 ± 0.044 | 0.0645 ± 0.013 | 0.0485 ± 0.0021 | -0.029 ± 0.018 | -0.055 ± 0.03 | -0.108 ± 0.019 | -0.137 ± 0.038 |
| KF3CT:CCL2/MCP-1 | -0.0045 ± 0.0092 | -0.008 ± 0.0099 | -0.0335 ± 0.015 | -0.015 ± 0.0014 | 0.0005 ± 0.023 | 0.036 ± 0.033 | -0.0115 ± 0.018 | -0.014 ± 0.0071 | -0.08 ± 0.0042 | -0.016 ± 0.025 | 0.0325 ± 0.03 | 0.029 ± 0.017 | -0.01 ± 0.014 | -0.0185 ± 0.005 | -0.0355 ± 0.0064 | -0.0255 ± 0.0078 | -0.038 ± 0.042 | -0.009 ± 0.011 | -0.012 ± 0.0014 | 0.001 ± 0.05 |
| KF3CT:CD54/ICAM-1 | -0.02 ± 0.0028 | 0.0015 ± 0.0092 | -0.005 ± 0.0085 | 0.0045 ± 0.011 | 0.0045 ± 0.033 | -0.0065 ± 0.0035 | -0.0295 ± 0.023 | -0.0435 ± 0.0035 | -0.033 ± 0.0085 | 0.0045 ± 0.019 | -0.018 ± 0.031 | 0.031 ± 0.03 | -0.035 ± 0.014 | 0.018 ± 0.0028 | 0.019 ± 0.034 | 0.013 ± 0.018 | -0.0055 ± 0.049 | -0.0165 ± 0.021 | 0.0075 ± 0.011 | 0.002 ± 0.027 |
| KF3CT:CXCL8/IL-8 | -0.0045 ± 0.015 | -0.0225 ± 0.025 | -0.0545 ± 0.019 | -0.0335 ± 0.016 | 0.009 ± 0.0085 | 0.021 ± 0.0057 | -0.019 ± 0.011 | -0.0145 ± 0.00071 | -0.103 ± 0.014 | -0.0025 ± 0.019 | 0.009 ± 0.033 | -0.039 ± 0.041 | -0.158 ± 0.037 | -0.106 ± 0.02 | 0.022 ± 0.0014 | 0.0245 ± 0.0078 | 0.032 ± 0.0028 | -0.006 ± 0.017 | -0.0045 ± 0.0092 | -0.0185 ± 0.015 |
| KF3CT:CXCL9/MIG | -0.0015 ± 0.00071 | -0.008 ± 0.0014 | -0.005 ± 0.0099 | 0.0205 ± 0.015 | 0.0085 ± 0.013 | 0.001 ± 0.0057 | -0.0095 ± 0.0064 | -0.002 ± 0.0028 | -0.005 ± 0.0085 | 0.007 ± 0.0028 | 0.006 ± 0.0028 | -0.008 ± 0.0057 | -0.0015 ± 0.0092 | -0.0035 ± 0.023 | -0.0095 ± 0.0078 | 0 ± 0.0071 | -0.0225 ± 0.0092 | -0.0065 ± 0.0035 | 0.003 ± 0.0042 | 0.008 ± 0.027 |
| KF3CT:CXCL10/IP-10 | 0.0135 ± 0.00071 | -0.0035 ± 0.0021 | -0.0105 ± 0.011 | -0.0035 ± 0.019 | -0.0055 ± 0.018 | -0.011 ± 0.0099 | -0.022 ± 0.0042 | -0.0335 ± 0.011 | -0.113 ± 0.028 | 0.0075 ± 0.005 | -0.015 ± 0.011 | 0.0005 ± 0.04 | 0.003 ± 0.034 | 0.0255 ± 0.026 | 0.0105 ± 0.028 | 0.023 ± 0.013 | 0.0205 ± 0.005 | -0.0075 ± 0.032 | -0.0015 ± 0.016 | -0.0335 ± 0.012 |
| KF3CT:IL-1alpha | -0.015 ± 0.0099 | 0.01 ± 0.013 | 0.0115 ± 0.005 | 0.035 ± 0.0042 | -0.009 ± 0.04 | 0.0175 ± 0.0092 | 0.022 ± 0.0057 | -0.0495 ± 0.013 | -0.0295 ± 0.005 | -0.014 ± 0.023 | 0.0015 ± 0.0092 | 0.0585 ± 0.026 | 0.0435 ± 0.026 | 0.051 ± 0.016 | 0.0025 ± 0.019 | 0.0035 ± 0.011 | 0.0025 ± 0.029 | -0.0105 ± 0.016 | -0.0085 ± 0.026 | -0.029 ± 0.0028 |
| KF3CT:MMP-9 | -0.008 ± 0.011 | 0.0015 ± 0.0064 | -0.0255 ± 0.0064 | -0.0375 ± 0.011 | -0.006 ± 0.024 | 0.0075 ± 0.029 | -0.012 ± 0.014 | 0.005 ± 0.034 | 0.0215 ± 0.0078 | 0.012 ± 0.03 | 0.009 ± 0.027 | 0.0055 ± 0.005 | -0.0495 ± 0.0035 | -0.098 ± 0.027 | -0.0095 ± 0.0064 | -0.027 ± 0.0042 | -0.0365 ± 0.013 | -0.013 ± 0.0099 | -0.038 ± 0.0042 | -0.0735 ± 0.023 |
| KF3CT:PAI-I | 0.01 ± 0.024 | -0.0105 ± 0.015 | -0.0365 ± 0.011 | -0.071 ± 0.0071 | 0.0165 ± 0.0078 | 0.026 ± 0.011 | -0.007 ± 0.0014 | -0.0325 ± 0.0078 | -0.0495 ± 0.021 | -0.004 ± 0.02 | 0.006 ± 0.0014 | 0.0465 ± 0.0078 | 0.101 ± 0.0071 | 0.0425 ± 0.028 | -0.037 ± 0.035 | -0.055 ± 0.02 | -0.0595 ± 0.03 | -0.044 ± 0.027 | -0.053 ± 0.0071 | -0.125 ± 0.024 |
| KF3CT:SRB | 0.003 ± 0.0057 | 0.0015 ± 0.0064 | 0.001 ± 0.0057 | -0.0065 ± 0.0021 | -0.0025 ± 0.023 | -0.0115 ± 0.015 | -0.0175 ± 0.011 | -0.022 ± 0.013 | -0.013 ± 0.031 | -0.0185 ± 0.0092 | -0.015 ± 0.011 | -0.0005 ± 0.00071 | -0.0035 ± 0.0078 | -0.002 ± 0.024 | 0.0025 ± 0.0035 | -0.001 ± 0.013 | 0.0085 ± 0.00071 | -0.0075 ± 0.0078 | -0.011 ± 0.0014 | -0.006 ± 0.0057 |
| KF3CT:TIMP-2 | -0.041 ± 0.013 | 0 ± 0.021 | 0.0385 ± 0.0078 | 0.0585 ± 0.011 | 0.004 ± 0.02 | -0.016 ± 0.011 | -0.038 ± 0.0099 | -0.0255 ± 0.043 | -0.03 ± 0.024 | 0.0115 ± 0.018 | -0.0195 ± 0.0064 | 0.0185 ± 0.0035 | 0.022 ± 0.024 | 0.008 ± 0.0028 | 0.0015 ± 0.0021 | 0.013 ± 0.018 | -0.0345 ± 0.005 | -0.01 ± 0.013 | 0.002 ± 0.02 | 0.0145 ± 0.0078 |
| KF3CT:uPA | 0.011 ± 0.0028 | 0.015 ± 0.016 | -0.003 ± 0.0071 | -0.0025 ± 0.0078 | 0.01 ± 0.024 | -0.0055 ± 0.029 | -0.0095 ± 0.0064 | -0.0065 ± 0.03 | 0.0095 ± 0.005 | 0.0105 ± 0.0092 | 0.009 ± 0.0085 | 0.007 ± 0.014 | -0.011 ± 0.014 | -0.0085 ± 0.012 | 0.0065 ± 0.018 | 0.003 ± 0.016 | 0.0025 ± 0.0092 | -0.011 ± 0.0099 | -0.004 ± 0.011 | -0.027 |
